Experimental data: US20020168365A1, “Method for modulating granzyme B uptake and for identifying modulators thereof” (priority 2000, published 2002)

How the values were obtained:
MPR^− cells = assay: TUNEL and annexin V apoptosis assays with grB and AD; type: cell-based, murine; conditions: 100 ng/ml grB and AD, 3 hr
Description: (§1) For the in vitro killing assays, 10 pfu per cell of replication-deficient adenovirus (AD) were added subsequent to grB addition. Analysis of DNA fragmentation by TUNEL analysis has been described previously (Heibein et al., 1999). TUNEL materials (Roche Diagnostics) were used as per the manufacturer's instructions. Phosphatidylserine externalization was measured as previously described (Heibein et al., 1999) using annexin V-FITC (PharMingen). Percent specific TUNEL/annexin V positive cells was calculated as: [(% positive labeling cells with grB and AD-% positive labeling cells without grB and AD)/(100-% positive labeling cells without grB and AD)]×100.

wild-type L cells = assay: as above; type: cell-based, murine
Description: as §1

[1] = system: L cells and the MPR-transfected L cell lines; assay: GrB binding assay (flow cytometry); design: species or system murine; conditions: grB treated with alkaline phosphatase in the absence of phosphate
Description: (§2) Cells (1-2×10^5) were washed twice and resuspended in buffer before the addition of grB-biotin or -OG in a final volume of 20 μl for a 30-60 min incubation and washed again twice. In the case of grB-biotin, cells were then incubated with streptavidin-cychrome for 20 min and washed twice. Unless otherwise indicated, ˜25 ng grB-biotin or -OG was used to label cells. All steps of the assay were carried out at 4° C. to prevent intracellular uptake of grB. PBS/0.1% BSA buffer was used throughout the procedure. In some cases, results are presented as the relative MFI, which represents the MFI of the grB-labeled population minus the MFI of the unlabeled population.
(§3) GrB was treated for 1 hr at 37° C. in a phosphate-free (saline) or a high-phosphate (64.5 mM Na2HPO4.7H2O, 21 mM KH2PO4) buffer with calf intestinal alkaline phosphatase (1-10 U), 20 nM of the 37 kDa catalytic subunit of recombinant protein phosphatase-1 (Bagu et al, 1997), or with vehicle control. Cells were then incubated with the treated grB at 4° C. for 30-60 min. For the TUNEL or annexin V assays, cells were then washed twice before incubation at 37° C. with AD.

[2] = system: breast carcinoma cell lines (T47-D, MDA-MB-231, SK-BR-3, MCF-7); assay: grB/AD-mediated apoptosis (TUNEL, annexin V) in carcinoma cell lines; type: cell-based, human
Description: Cells were resuspended at 10^6 cells/ml in 0.1% BSA/DMEM. Adenovirus (10 PFU/cell) and granzyme B (grB) were added directly to the cell suspension. Cells were incubated at 37° C. for 3 h. For staurosporine killing, cells were resuspended at 10^6 cells/ml in their normal growth medium and staurosporine (2.5 μM) was added directly to the cell suspension. Cells were incubated at 37° C. for 2, 4 and 8 h. DNA fragmentation was monitored by flow cytometric analysis via the terminal deoxynucleotidyltransferase-mediated dUTP-biotin nick end labeling (TUNEL) method. Flow cytometric analysis was performed on a Becton Dickinson FACScanθ flow cytometer equipped with an argon-ion laser with 15 mW of excitation at 488 nm. Emission wavelengths were detected through the FL1 channel. Data were acquired on 10,000 cells per sample with light scatter signals at linear gain and fluorescence signals at logarithmic gain. Percent specific TUNEL positive cells was calculated as follows: [(% positive labeling cells with grB and AD−% positive labeling cells without grB and AD)/(AD−% positive labeling cells without grB and AD)]×100. Phosphatidylserine externalization was monitored using the ApoAlertθ annexin V apoptosis kit (Clontech) according to the protocol provided by the manufacturer. Flow cytometric analysis was performed on a Becton Dickinson FACScanθ flow cytometer equipped with an argon-ion laser with 15 mW of excitation at 488 nm. Emission wavelengths were detected through the FL1 channel. Data were acquired on 10,000 cells per sample with light scatter signals at linear gain and fluorescence signals at logarithmic gain. Percent specific Annexin V positive cells was calculated as follows: [(% positive labeling cells with grB and AD−% positive labeling cells without grB and AD)/(AD−% positive labeling cells without grB and AD)]×100.

Jurkat cells = assay: GrB binding assay (flow cytometry, labeled grB at 4° C.); design: species or system human
Description: as §2, §3
M6P and various other monosaccharides at different concentrations were added to cells for 15 min at 4° C. before the addition of labeled grB, or at room temperature before the addition of grB and AD.
GrB was incubated with sCI-MPR at various concentrations in PBS/0.1% BSA for 30 min at 4° C. Subsequently, cells were incubated with grB/sCI-MPR for 30-60 min at 4° C. and washed twice, before analysis of binding, or before the addition of AD for TUNEL and annexin V analysis.

[3] = all the carcinoma cell lines, 3 hr

**Q.** Which results are given for “grB: Human serine proteinase granzyme B purified from the cytolytic granules of YT-Indy cells”?
**A.** grB and AD-induced DNA fragmentation (MPR^− cells): relatively resistant; TUNEL and annexin V positive cells (wild-type L cells; at later times (data not shown)): ~100%; TUNEL and annexin V positive cells (wild-type L cells; at the time-point of the assay (3 hr)): about 30%; binding to L cells and the MPR-transfected L cell lines [1]: dramatic decrease in binding; DNA fragmentation or phosphatidylserine externalization ([2]; MCF-7 cells, granzyme B and adenovirus): no DNA-fragmentation or phosphatidylserine externalization could be detected; phosphatidylserine exposure or DNA fragmentation ([2]; T47-D cells, granzyme B and adenovirus): unable to detect any phosphatidylserine exposure or DNA fragmentation; annexin V binding after grB and AD [2, 3]: did not bind annexin V; grB and AD-mediated DNA fragmentation [2, 3]: resistant; ability to bind Jurkat cells (Jurkat cells; grB treated with catalytic subunit of protein phosphatase-1 (data not shown)): did not lose; ability to bind Jurkat cells (Jurkat cells; grB-biotin treated with alkaline phosphatase in phosphate-free buffer): marked reduction
